Source: patent US20260034253A1, “NECTIN-4 MINIPROTEIN CONJUGATES” (Aktis Oncology, Inc., priority 2022, published 2026)
Bridge positions count the residues as written; N and C are the ends. Primed or numbered codes have the meaning given here. * marks the point of attachment. DOTA‑PEG4 = alpha-(1,4,7,10-tetraazacyclododecan-1,4,7,10-tetraacetate)-4(ethylene glycol); DOTA = O=C(O)CN1CCN(CC(=O)O)CCN(CC(=O)*)CCN(CC(=O)O)CC1; PEG4′ = polyethylene glycol (PEG4) linker

Key:
[1] = Plasma pharmacokinetic analysis in Sprague Dawley rats; assay type: in vivo; conditions: rat, bolus intravenous injection, read-out: PK DATA (t½ - min)
Procedure: Nine blood collection timepoints are taken from 2-24 hours, processed to plasma with K2EDTA, and are frozen for subsequent bioanalysis. Plasma miniprotein concentrations are measured by LC-MS/MS. Plasma FITC-sinistrin is measured fluorometrically. […] Finally, non-compartmental analysis is performed to estimate plasma pharmacokinetic parameters.
Exemplary pK data for exemplary Nectin-4 miniprotein monomers were tested in vivo (t1/2 mins), showing an average pK for these exemplary compounds.

[2] = previously published, Challita-Eid et al Cancer Res (2016); cited from earlier work
[3] = tested on: HT1376 urothelial cancer cells; assay: In vitro cell cytotoxicity assay of actinium-225 radioconjugates (CellTiter-Glo); assay type: cell-based; conditions: compound radiolabeled with 225Ac, 24 hours treatment, 4-5 days regrowth, cell viability
Procedure: Cytotoxicity to actinium-225 radioconjugates was assessed in HT1376 urothelial cancer cells. Cells were seeded in 96-well plates at densities of 250 to 1000 cells per well two days prior to treatment. On the day of treatment actinium-225 radioconjugates were diluted in culture medium to concentrations ranging from 0.0001 to 100 uCi/mL and treatment solutions were incubated with cells for 24 hours. At the end of the treatment period, the treatment solution was removed, and fresh culture medium was replenished for the regrowth period of the assay that lasted 4-5 days. At the end of the regrowth period the culture medium was removed and viability was assessed by CellTiter-Glo (Promega, Waltham MA) luminescent assay and the plates were read on a Perkin Elmer Enspire multimode plate reader. Data were normalized to treatment controls and plotted as non-linear sigmoidal dose response curves to determine the effective concentration for 50% reduction in cell viability.

[4] = Thermal stability at 75° C. in 0.9% saline by HPLC; assay type: physicochemical; conditions: 1 mg/mL, 0.9% Saline solution, 60 minutes, FIG. 7
Procedure: The thermal stability of an exemplary compound, C215, was analyzed at a concentration of 1 mg/mL at 75° C. in 0.9% Saline solution. A heating plate was set to 75° C. and the sample was heated for a period of one hour. The vial was shaken prior to collecting […] at 5, 10, 15, 30 and 60 minute time intervals. The % parent remaining was analyzed by HPLC using the following system and method: Analytical Agilent 1100 HPLC system using a 4.6×250 mm, 300 Angstrom, BEH300, […], Xbridge C18 column at […]. The solvent system consisted of A=Water+0.1% TFA, B=Acetonitrile+0.1% TFA. The gradient consisted of 5% to 70% B over 15 minutes, then the column was washed and equilibrated to initial conditions.

[5] = target: T1, Nectin-4 on HT1376 urothelial cancer cells (UniProt Q96NY8 32-510); assay: saturation radioligand binding (Lu-177) on HT1376 cells, 4 C, gamma counting
T1 construct: whole, on cells; also called HT1376 cells
T1 sequence (looked up): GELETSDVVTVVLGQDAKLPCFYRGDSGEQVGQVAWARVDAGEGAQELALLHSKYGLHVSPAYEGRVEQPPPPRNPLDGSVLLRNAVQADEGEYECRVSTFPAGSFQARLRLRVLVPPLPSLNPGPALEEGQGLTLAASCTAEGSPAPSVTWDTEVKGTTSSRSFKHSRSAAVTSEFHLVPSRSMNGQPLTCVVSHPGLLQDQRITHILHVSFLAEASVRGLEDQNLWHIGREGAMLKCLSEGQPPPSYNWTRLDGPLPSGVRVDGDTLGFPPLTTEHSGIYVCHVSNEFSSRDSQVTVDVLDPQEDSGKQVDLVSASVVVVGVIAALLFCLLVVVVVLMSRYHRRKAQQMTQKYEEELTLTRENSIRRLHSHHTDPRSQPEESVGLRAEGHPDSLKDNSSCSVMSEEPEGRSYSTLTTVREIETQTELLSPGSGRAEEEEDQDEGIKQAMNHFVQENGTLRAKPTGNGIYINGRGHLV
Procedure: Radioligand binding was performed in HT1376 urothelial cancer cells by method of saturation. Cells were seeded at 20,000 cells per well in 96-well format 48 hours prior to assay. Lutetium-177-labeled radioconjugates of C215 and C117 were incubated with cells at 4 deg C. for 1 h at various increasing concentrations of radioligand. At the end of incubation cells were washed three times with PBS and radioactivity was quantified by gamma counting as shown in Table 3.

## CC[C@H](C)[C@@H]1NC(=O)[C@H](CC(=O)O)NC(=O)CNC(=O)CNC(=O)[C@H](CCCNC(N)=O)NC(=O)[C@H](CC(C)C)NC(=O)[C@H](CCCNC(N)=O)NC(=O)[C@H](CCCCNC(C)=O)NC(=O)[C@H](CC(C)C)NC(=O)[C@H](C)NC(=O)[C@H]([C@@H](C)O)NC(=O)[C@H](Cc2ccccc2)NC(=O)[C@H](Cc2ccccc2)NC(=O)[C@H](CCC(=O)O)NC(=O)[C@H](CCC(=O)O)NC(=O)[C@H](CC(=O)O)NC(=O)[C@H](Cc2ccc(O)cc2)NC(=O)[C@H](CCC(=O)O)NC(=O)[C@@H](NC(=O)CCOCCOCCOCCOCCNC(=O)CN2CCN(CC(=O)O)CCN(CC(=O)O)CCN(CC(=O)O)CC2)CSSC[C@@H]2NC(=O)[C@H](CC(C)C)NC(=O)[C@H](CCCCN)NC(=O)[C@@H]3CCCN3C(=O)[C@H](C(C)C)NC(=O)[C@H](CCCCN)NC(=O)[C@H](CCCCN)NC(=O)[C@H](Cc3ccccc3)NC(=O)[C@H](CCCCN)NC(=O)[C@H](CCCCN)NC(=O)[C@H](CCCCN)NC(=O)[C@H]([C@@H](C)CC)NC(=O)[C@H](Cc3ccc(O)cc3)NC(=O)[C@H](Cc3ccc(O)cc3)NC(=O)[C@H](CSSC[C@@H](C(N)=O)NC(=O)CNC(=O)[C@H](CC(C)C)NC(=O)[C@H](CCCCNC(C)=O)NC(=O)[C@H](CC(=O)O)NC(=O)[C@H](CC(C)C)NC(=O)[C@H]([C@@H](C)CC)NC(=O)[C@H](CCC(=O)O)NC(=O)[C@H](CCC(=O)O)NC(=O)[C@H]([C@@H](C)CC)NC2=O)NC1=O [Compound C217]
[1]
  half-life: 31.4 min

## enfortumab vedotin
[2]
  PK DATA (t½ - min): 2,476.8 min
  PK DATA (t½): 41.3 h

## C215 (CEYDEEFFTALKRLRGGDICYYIKKKFKKVPKLCIEEILDKLGC) [Compound C215]
[3]
  EC50 (microcurie/milliliter) for Ac-225 radioconjugates: 0.086 microcurie/milliliter
[4]
  Thermal stability (% parent remaining): remain stable

## CC[C@H](C)[C@@H]1NC(=O)[C@H](CC(=O)O)NC(=O)CNC(=O)CNC(=O)[C@H](CCCNC(=N)N)NC(=O)[C@H](CC(C)C)NC(=O)[C@H](CCCNC(=N)N)NC(=O)[C@H](CCCCN)NC(=O)[C@H](CC(C)C)NC(=O)[C@H](C)NC(=O)[C@H]([C@@H](C)O)NC(=O)[C@H](Cc2ccccc2)NC(=O)[C@H](Cc2ccccc2)NC(=O)[C@H](CCC(=O)O)NC(=O)[C@H](CCC(=O)O)NC(=O)[C@H](CC(=O)O)NC(=O)[C@H](Cc2ccc(O)cc2)NC(=O)[C@H](CCC(=O)O)NC(=O)[C@@H](NC(=O)CCOCCOCCOCCOCCNC(=O)CN2CCN(CC(=O)O)CCN(CC(=O)O)CCN(CC(=O)O)CC2)CSSC[C@@H]2NC(=O)[C@H](CC(C)C)NC(=O)[C@H](CCCCNC(C)=O)NC(=O)[C@@H]3CCCN3C(=O)[C@H](C(C)C)NC(=O)[C@H](CCCCNC(C)=O)NC(=O)[C@H](CCCCNC(C)=O)NC(=O)[C@H](Cc3ccccc3)NC(=O)[C@H](CCCCNC(C)=O)NC(=O)[C@H](CCCCNC(C)=O)NC(=O)[C@H](CCCCNC(C)=O)NC(=O)[C@H]([C@@H](C)CC)NC(=O)[C@H](Cc3ccc(O)cc3)NC(=O)[C@H](Cc3ccc(O)cc3)NC(=O)[C@H](CSSC[C@@H](C(N)=O)NC(=O)CNC(=O)[C@H](CC(C)C)NC(=O)[C@H](CCCCN)NC(=O)[C@H](CC(=O)O)NC(=O)[C@H](CC(C)C)NC(=O)[C@H]([C@@H](C)CC)NC(=O)[C@H](CCC(=O)O)NC(=O)[C@H](CCC(=O)O)NC(=O)[C@H]([C@@H](C)CC)NC2=O)NC1=O [Compound C216]
[1]
  half-life: 31.4 min

## C214 ({DOTA‑PEG4}-CEYDEEFFTALKRLRGGDICYYIKKKFDYLPKLCIEEILDNLGC-NH2; disulfide 1-34, 20-44) [Compound C214]
[3]
  EC50 (microcurie/milliliter) for Ac-225 radioconjugates: 0.014 microcurie/milliliter

## {DOTA-PEG4′}-CEYDEEFFTALKRLRGGDICYYIQAKFQYLPKLCIEEILDNLGCS-OH (designed binder, disulfide 1-34, 20-44; also: DOTA labeled with lutetium-177) [Lutetium-177-labeled radioconjugate of C117]
[5]
  Kd: 0.89 nM
